Data from PubChem BioAssay AID2060343 (Molecular Pharmacology Branch, DTP, NCI, 2025).
Where “and” joins values, the source holds several entries; their conditions need not be identical. Equal entries are not always repeated.

Tested on: 138582-337-R-J1-PDC spheroids with HUVEC/MSC, viability
Test: Anticancer human tumor 138582-337-R-J1-PDC patient-derived Merkel cell tumor cell line growth inhibition [IpAb]
Conditions: for viability, T/C: stronger effect = lower value
From the text: Combinatorial screen of targeted agents with ipatasertib and abemaciclib in multi-cell type tumor spheroids
A high-throughput screen of multi-cell type tumor spheroids was designed to identify active combinations of targeted small molecules and ipatasertib or abemaciclib. Complex spheroids include a stromal component modeled by human endothelial cells (HUVEC) and fibroblasts modeled by human mesenchymal stem cells (MSCs). The concentration ranges selected for each drug and investigational agent were based upon clinically achievable concentrations if the clinical Cmax of the agent was known.
Compounds. The drugs and investigational agents: ipatasertib (NSC767898), abemaciclib(NSC768073), selumetinib (NSC741078), trametinib (758246), adavosertib (NSC754352), everolimus (NSC733504), sapanisertib (NSC764658), vemurafenib (NSC761431), venetoclax (NSC766270), copanlisib (NSC809693), apelisib (NSC765974), palbociblib (NSC758247), vemurafenib (NSC761431), dabrafenib (NSC764134), ravoxertinib (NSC781343), BMS-387032 (NSC767048), sotorasib (NSC818433), talazoparib (NSC767125) and afursertib (NSC778305), were obtained from the National Cancer Institute (NCI) Developmental Therapeutics Program Chemical Repository. The FDA-approved anticancer drug set is available from the NCI Developmental Therapeutics Program. […] The stock solutions were prepared in dimethyl sulfoxide (DMSO, Sigma-Aldrich, St. Louis, MO, cat. D2650) at 800-fold the tested concentration and stored at -70 degrees C prior to their use. All drugs and investigational agents were tested over a range starting from a high concentration at or near the clinical Cmax and decreasing in half-log increments. If the clinical Cmax for an agent had not been determined, the highest concentration tested was 10 microM.
NCI60 Cell Culture. NCI60 cell lines were obtained from the NCI Developmental Therapeutics Program Tumor Repository. For each lot of cells, the Repository performed Applied Biosystems AmpFLSTR Identifiler testing with PCR amplification to confirm consistency with the published Identifier STR profile for each cell line. Cells were kept in continuous culture for no more than 20 passages. The optimal seeding densities for each of the cell lines at each time point assessed were determined prior to performing the concentration response studies. Briefly, the NCI60 human tumor lines were grown as monolayers in RPMI 1640 medium supplemented with 10% FBS and 2 mmol/L L-glutamine.
An additional 9 lines were from the NCI60 cell line panel including MDA-MB-231 breast carcinoma, MDA-MB-468 breast carcinoma, MCF7 breast carcinoma, Hs578T breast carcinoma, MALME-3M melanoma, SK-MEL-2 melanoma, SK-OV-3 ovarian carcinoma, DU-145 prostate carcinoma, PC-3 prostate carcinoma, all cell lines along with major genetic alterations are listed on Table 2. Pooled donor human umbilical vein endothelial cells (HUVEC, Lonza, cat. CC-2519) and human mesenchymal stem cells (hMSC, Lonza, cat. PT-2501) were purchased from Lonza (Walkersville, MD).
PDMR cell lines were grown in complete medium (DC medium): Dulbecco's modified Eagle's medium (DMEM)/F12 supplemented with 5% fetal bovine serum (FBS), 2 mM L-glutamine, 100 U/mL penicillin and 100 µg/ml streptomycin, 0.4 µg/ml hydrocortisone, 10 ng/ml epidermal growth factor (EGF) recombinant human protein, 24 µg/mL adenine, and 0.1 mg/mL primocin. During culture from frozen stock vials, PDMR cells were cultured in the same medium containing 10 µM Y-27632 (see Table 3). The PDCs were cultured in complete DMEM/F12 media without 10 microM Y-27632 dihydrochloride for at least two passages prior to the screen. The pooled donor HUVEC and hMSC were cultured in endothelial cell growth medium 2 (PromoCell, Heidelberg, Germany, cat. C-22011) and mesenchymal stem cell growth medium 2 (PromoCell, cat. C-28009), respectively. For all experiments, HUVEC and hMSC were used at passages </=5.
[…]
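Further: spheroids exposed to compounds for seven days.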
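Wherever viability, T/C is given: 100% = DMSO vehicle control viability.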

Q: What does the source list for `Cc1nc(NC(=O)N2CCCC2C(N)=O)sc1-c1ccnc(C(C)(C)C(F)(F)F)c1` (stereo not given)?
A: viability, T/C (compound 0.0316 µM): 97.5% and 84.4%; viability, T/C (compound 0.1 µM): 80.2% and 88.7%; viability, T/C (compound 0.316 µM): 65.3% and 69.1%; viability, T/C (compound 1 µM): 59.3% and 53.7%; viability, T/C (compound 3.16 µM): 52.5% and 46.1%; viability, T/C (compound 10 µM): 29.6% and 18.7%; IC50 (curve of compound): 2030 nM and 1790 nM

Q: Which viability, T/C (compound 0.00949 µM) does the source give for `Cn1cnc2c(F)c(Nc3ccc(Br)cc3Cl)c(C(=O)NOCCO)cc21` here?
A: 112% and 90.1%

Q: What about the viability, T/C (compound 0.03 µM) of the same compound?
A: 96.5% and 82.8%

Q: And the viability, T/C (compound 0.0949 µM)?
A: 98.2% and 82.7%

Q: What about the viability, T/C (compound 0.3 µM) of the same compound?
A: 116% and 84%

Q: What about the viability, T/C (compound 0.949 µM) of the same compound?
A: 109% and 97.7%

Q: And the viability, T/C (compound 3 µM)?
A: 146% and 106%

Q: And the IC50 (curve of compound)?
A: > 3000 nM

Q: Which viability, T/C (compound 0.0316 µM) does the source give for `Cn1ncc(Cl)c1-c1cc(C(=O)NC(CN)Cc2cccc(F)c2)sc1Cl` (stereo not given) here?
A: 89.5% and 99.6%

Q: And the viability, T/C (compound 0.1 µM)?
A: 80.9% and 77%

Q: What about the viability, T/C (compound 0.316 µM) of the same compound?
A: 86.6% and 67.6%

Q: What about the viability, T/C (compound 1 µM) of the same compound?
A: 72.8% and 61.9%

Q: And the viability, T/C (compound 3.16 µM)?
A: 66.4% and 46%

Q: What about the viability, T/C (compound 10 µM) of the same compound?
A: 0.28% and 0.56%

Q: What about the IC50 (curve of compound) of the same compound?
A: 4050 nM and 1720 nM

Q: Which results are given for `Cn1nccc1Nc1nccc(-c2ccn(C(CO)c3ccc(Cl)c(F)c3)c(=O)c2)n1` (stereo not given)?
A: viability, T/C (compound 0.0316 µM): 96.2% and 97.2%; viability, T/C (compound 0.1 µM): 94.1% and 93.3%; viability, T/C (compound 0.316 µM): 106% and 92.3%; viability, T/C (compound 1 µM): 109% and 104%; viability, T/C (compound 3.16 µM): 124% and 111%; viability, T/C (compound 10 µM): 132% and 127%; IC50 (curve of compound): > 10000 nM

Q: Which viability, T/C (compound 0.000316 µM) does the source give for `Cn1ncnc1[C@H]1c2n[nH]c(=O)c3cc(F)cc(c23)N[C@@H]1c1ccc(F)cc1` here?
A: 104% and 97.7%

Q: And the viability, T/C (compound 0.001 µM)?
A: 91%

Q: What about the viability, T/C (compound 0.00316 µM) of the same compound?
A: 92.1% and 91.5%

Q: What about the viability, T/C (compound 0.01 µM) of the same compound?
A: 86.4% and 86.3%

Q: What about the viability, T/C (compound 0.0316 µM) of the same compound?
A: 83% and 86.4%

Q: And the viability, T/C (compound 0.1 µM)?
A: 89.5% and 79.1%

Q: And the IC50 (curve of compound)?
A: > 100 nM

Q: With `Cn1cnc2c(F)c(Nc3ccc(Br)cc3Cl)c(C(=O)NOCCO)cc21` + CC(C)NCC(C(=O)N1CCN(c2ncnc3c2C(C)CC3O)CC1)c1ccc(Cl)cc1 as the compound, how does the IC50 (curve of first compound, second compound 0.1 µM) read?
A: > 3000 nM

Q: And the IC50 (curve of first compound, second compound 0.316 µM)?
A: 1760 nM

Q: What about the IC50 (curve of first compound, second compound 1 µM) of the same compound?
A: 328 nM

Q: What about the IC50 (curve of first compound, second compound 3.16 µM) of the same compound?
A: 63.7 nM

Q: What about the IC50 (curve of first compound, second compound 10 µM) of the same compound?
A: < 9.49 nM

Q: And the viability, T/C (second compound 0.1 µM, first compound 0.00949 µM)?
A: 97.8%

Q: And the viability, T/C (second compound 0.1 µM, first compound 0.03 µM)?
A: 88.1%

Q: And the viability, T/C (second compound 0.1 µM, first compound 0.0949 µM)?
A: 85.2%

Q: What about the viability, T/C (second compound 0.1 µM, first compound 0.3 µM) of the same compound?
A: 83.8%

Q: And the viability, T/C (second compound 0.1 µM, first compound 0.949 µM)?
A: 101%

Q: What about the viability, T/C (second compound 0.1 µM, first compound 3 µM) of the same compound?
A: 105%

Q: And the viability, T/C (second compound 0.316 µM, first compound 0.00949 µM)?
A: 74.9%

Q: What about the viability, T/C (second compound 0.316 µM, first compound 0.03 µM) of the same compound?
A: 73.3%

Q: And the viability, T/C (second compound 0.316 µM, first compound 0.0949 µM)?
A: 69.6%

Q: And the viability, T/C (second compound 0.316 µM, first compound 0.3 µM)?
A: 55%

Q: And the viability, T/C (second compound 0.316 µM, first compound 0.949 µM)?
A: 56.6%

Q: What about the viability, T/C (second compound 0.316 µM, first compound 3 µM) of the same compound?
A: 46.7%

Q: What about the viability, T/C (second compound 1 µM, first compound 0.00949 µM) of the same compound?
A: 58.9%

Q: What about the viability, T/C (second compound 1 µM, first compound 0.03 µM) of the same compound?
A: 68.2%

Q: And the viability, T/C (second compound 1 µM, first compound 0.0949 µM)?
A: 56%

Q: What about the viability, T/C (second compound 1 µM, first compound 0.3 µM) of the same compound?
A: 47.2%

Q: And the viability, T/C (second compound 1 µM, first compound 0.949 µM)?
A: 42.4%

Q: And the viability, T/C (second compound 1 µM, first compound 3 µM)?
A: 22.4%

Q: What about the viability, T/C (second compound 3.16 µM, first compound 0.00949 µM) of the same compound?
A: 57.1%

Q: And the viability, T/C (second compound 3.16 µM, first compound 0.03 µM)?
A: 64%

Q: What about the viability, T/C (second compound 3.16 µM, first compound 0.0949 µM) of the same compound?
A: 42.5%

Q: What about the viability, T/C (second compound 3.16 µM, first compound 0.3 µM) of the same compound?
A: 33.4%

Q: And the viability, T/C (second compound 3.16 µM, first compound 0.949 µM)?
A: 27.5%

Q: And the viability, T/C (second compound 3.16 µM, first compound 3 µM)?
A: 11.3%

Q: And the viability, T/C (second compound 10 µM, first compound 0.00949 µM)?
A: 46.1%

Q: And the viability, T/C (second compound 10 µM, first compound 0.03 µM)?
A: 46.7%

Q: And the viability, T/C (second compound 10 µM, first compound 0.0949 µM)?
A: 33.6%

Q: What about the viability, T/C (second compound 10 µM, first compound 0.3 µM) of the same compound?
A: 24.9%

Q: What about the viability, T/C (second compound 10 µM, first compound 0.949 µM) of the same compound?
A: 18.6%

Q: What about the viability, T/C (second compound 10 µM, first compound 3 µM) of the same compound?
A: 3.49%
